Experimental data from patent publication US6723716B1, “7-acylamino-3-heteroarylthio-3-cephem carboxylic acid antibiotics and prodrugs thereof” (Essential Therapeutics, Inc., priority 1999, dated 2004).
Converted amounts (≈) assume the structure as drawn. Where two headings read alike, the source gives them in different places.

Legend:
E. faecium VanA (Van^R) = test: Broth microdilution MIC (NCCLS); assay type: cell-based; settings: Enterococcus faecium
Method in brief: (§1)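 Endpoint: lowest concentration preventing visible or OD650-detected growth. Conditions: Mueller-Hinton broth, serial 2-fold compound dilutions, 5×10^5 CFU/mL, 35° C for 24 h. Inoculum counts were checked by plating on TSA.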

E. faecalis VanB (Van^R) = test: Broth microdilution MIC (NCCLS); assay type: cell-based; settings: Enterococcus faecalis
Method in brief: as §1

[1] = system: S. haemolyticus 05 (Meth^R); test: Broth microdilution MIC (NCCLS); assay type: cell-based; settings: Staphylococcus haemolyticus
Method in brief: as §1

[2] = system: S. aureus ATCC 13709 (Meth^S); test: Broth microdilution MIC (NCCLS); assay type: cell-based; settings: Staphylococcus aureus, ATCC13709, S. aureus ATCC 13709 (Meth^S); read-out: MIC
Method in brief: as §1

E. faecium ATCC 35667 = test: Broth microdilution MIC (NCCLS); assay type: cell-based; settings: Enterococcus faecium, ATCC35667
Method in brief: as §1

[3] = system: S. aureus 76 (Meth^R)(lac^+); test: Broth microdilution MIC (NCCLS); assay type: cell-based; settings: Staphylococcus aureus
Method in brief: as §1

P. aeruginosa ATCC 27853 = test: Broth microdilution MIC (NCCLS); assay type: cell-based; settings: Pseudomonas aeruginosa, ATCC27853
Method in brief: (§2)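 NCCLS broth microdilution in Mueller-Hinton broth, final inoculum 5×10^5 CFU/mL from early-log cultures (Enterococcus diluted from overnight cultures), serial 2-fold compound dilutions. Plates incubated 24 h at 35° C, read at 650 nm and visually; MIC = lowest concentration preventing growth.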

[4] = Pharmacokinetic evaluation in rat (clearance); assay type: in vivo; settings: male, Sprague-Dawley (SD), serum, iv, read-out: Pharmacokinetics Clearance (converted)
Description: Four male SD rats with femoral and jugular vein catheters were obtained from Hilltop Lab Animals, Inc. (Scottdale, Pa.). The catheters in the femoral and jugular veins were filled with 10 units/mL heparin in saline, and kept patent by changing the solution daily. The animals were quarantined for a minimum of two days prior to use, and were maintained on a 12-h light:dark schedule with constant access to food and water before and during the study. On the day of dosing, the animals weighed […] (mean±s.d.).
A 4 mg/mL (active component) dosing solution of mesylate salt of compound 17 was prepared in sterile saline for injection. […] Blood samples (0.2 mL aliquots) were collected from the jugular vein catheter 5, 15, 20, 25, 30, and 45 min, and 1, 2, 3, and 4 h after the start of the infusion. The blood was centrifuged for 10 min and the serum was stored ≦−70° C. until analysis by HPLC.
The plasma concentrations from individual animals were fit to a two-compartment model with zero order input and first-order elimination from the central compartment using weighted nonlinear regression (WinNonlin, Pharsight, Palo Alto, Calif.). Pharmacokinetic parameters were calculated from the fitted parameters using standard equations (Gibaldi M, Perrier D. 1982. Pharmacokinetics, 2nd ed., Marcel Dekker Inc., New York.).

S. aureus ATCC29213 = test: Human serum binding effect: MIC with and without human serum; assay type: cell-based, Staphylococcus aureus; settings: 1:1 human serum:MHB
Method in brief: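 Serum binding was estimated as the ratio of S. aureus ATCC29213 MIC in 1:1 human serum:Mueller-Hinton broth to MIC without serum. Compounds were serially 2-fold diluted, and wells received an early-log-phase inoculum at 1×10^6 CFU/mL final. Inoculum size was checked by colony counts on TSA after overnight incubation at 35 °C.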

[5] = system: S. aureus Col (Meth^R)(lac^−); test: Broth microdilution MIC (NCCLS); assay type: cell-based; settings: Staphylococcus aureus
Method in brief: as §1

E. faecalis ATCC 29212 = test: Broth microdilution MIC (NCCLS); assay type: cell-based; settings: Enterococcus faecalis, ATCC29212
Method in brief: as §1

[6] = system: S. aureus ATCC 33593 (Meth^R); test: Broth microdilution MIC (NCCLS); assay type: cell-based; settings: Staphylococcus aureus, ATCC33593
Method in brief: as §1

E. faecium A491 (Amp^R) = test: Broth microdilution MIC (NCCLS); assay type: cell-based; settings: Enterococcus faecium
Method in brief: as §1

E. coli ATCC25992 = test: Broth microdilution MIC (NCCLS); assay type: cell-based; settings: Escherichia coli
Method in brief: as §2

SMILES | MIC (E. faecium VanA (Van^R)) | MIC (E. faecalis VanB (Van^R)) | MIC [1] | MIC [2] | MIC (E. faecium ATCC 35667) | MIC [3] | MIC (P. aeruginosa ATCC 27853) | clearance ([4]; dose 27.5 mg/kg) | Human serum binding effect (ratio of MIC value determined with and without human serum added) (S. aureus ATCC29213) | MIC [5] | MIC (E. faecalis ATCC 29212) | MIC [6] | MIC (E. faecium A491 (Amp^R)) | MIC (E. coli ATCC25992) | clearance ([4]; dose 20.0 mg/kg) | clearance ([4]; dose 16.4 mg/kg, mesylate salt, 20 min i.v. infusion) | clearance ([4]; dose 42.5 mg/kg)
NCCSCc1nc(N)sc1SC1=C(C(=O)O)N2C(=O)[C@@H](NC(=O)/C(=N\O)c3nc(N)sc3Cl)[C@H]2SC1 [Cmpd 3, (7R)-7-[(Z)-2-(2-amino-5-chlorothiazol-4-yl)-2-(hydroxyimino)acetamido]-3-[4-(2-aminoethylthiomethyl)-2-amino-1,3-thiazol-5-ylthio]-3-cephem-4-carboxylic acid] | 8 µg/mL (≈ 12.8 µM) | 0.25 µg/mL (≈ 0.401 µM) | 1 µg/mL (≈ 1.6 µM) | 0.13 µg/mL (≈ 0.209 µM) | 1 µg/mL (≈ 1.6 µM) | 1 µg/mL (≈ 1.6 µM) | 4 µg/mL (≈ 6.42 µM) | 15.8 mL/min/kg | 4 | – | – | – | – | – | – | – | –
NCCSCc1nc(SCCN)sc1SC1=C(C(=O)O)N2C(=O)[C@@H](NC(=O)/C(=N\O)c3nc(N)sc3Cl)[C@H]2SC1 [Cmpd 11, (7R)-7-[(Z)-2-(2-amino-5-chlorothiazol-4-yl)-2-(hydroxyimino)acetamido]-3-[4-(2-aminoethylthiomethyl)-2-aminoethylthio-1,3-thiazol-5-ylthio]-3-cephem-4-carboxylic acid] | 4 µg/mL (≈ 5.85 µM) | 0.06 µg/mL (≈ 0.0878 µM) | 0.5 µg/mL (≈ 0.732 µM) | 0.13 µg/mL (≈ 0.19 µM) | 0.5 µg/mL (≈ 0.732 µM) | 0.5 µg/mL (≈ 0.732 µM) | 2 µg/mL (≈ 2.93 µM) | – | 4 | 0.5 µg/mL (≈ 0.732 µM) | 0.06 µg/mL (≈ 0.0878 µM) | 0.5 µg/mL (≈ 0.732 µM) | 4 µg/mL (≈ 5.85 µM) | 2 µg/mL (≈ 2.93 µM) | – | – | –
NCCSCc1ncccc1SC1=C(C(=O)O)N2C(=O)[C@@H](NC(=O)/C(=N\O)c3nc(N)sc3Cl)[C@H]2SC1 [Cmpd 13, (7R)-7-[(Z)-2-(2-amino-5-chlorothiazol-4-yl)-2-(hydroxyimino)acetamido]-3-[2-(2-aminoethylthiomethyl)pyrid-3-ylthio]-3-cephem-4-carboxylic acid] | – | – | – | – | – | – | – | – | 2 | 0.5 µg/mL (≈ 0.83 µM) | – | – | – | – | 13.2 mL/min/kg | – | –
N=C(N)NCCSCc1ncccc1SC1=C(C(=O)O)N2C(=O)[C@@H](NC(=O)/C(=N\O)c3nsc(N)n3)[C@H]2SC1 [Cmpd 14, (7R)-7-[(Z)-2-(5-amino-1,2,4-thiadiazol-3-yl)-2-(hydroxyimino)acetamido]-3-[2-(2-guanidinoethylthiomethyl)pyrid-3-ylthio]-3-cephem-4-carboxylic acid] | – | 0.25 µg/mL (≈ 0.409 µM) | – | – | – | – | – | – | 2 | – | – | – | – | – | – | – | –
NCCSCc1ncccc1SC1=C(C(=O)O)N2C(=O)[C@@H](NC(=O)/C(=N\O)c3nsc(N)n3)[C@H]2SC1 [Cmpd 17, (7R)-7-[(Z)-2-(5-amino-1,2,4-thiadiazol-3-yl)-2-(hydroxyimino)acetamido]-3-[2-(2-aminoethylthiomethyl)pyrid-3-ylthio]-3-cephem-4-carboxylic acid] | – | – | – | 0.25 µg/mL (≈ 0.44 µM) | – | – | – | – | 2 | – | – | – | – | – | – | 8.33 mL/min/kg | –
NCCSCc1cnccc1SC1=C(C(=O)O)N2C(=O)[C@@H](NC(=O)/C(=N\O)c3nsc(N)n3)[C@H]2SC1 [Cmpd 18, (7R)-7-[(Z)-2-(5-amino-1,2,4-thiadiazol-3-yl)-2-(hydroxyimino)acetamido]-3-[3-(2-aminoethylthiomethyl)pyrid-4-ylthio]-3-cephem-4-carboxylic acid] | 1 µg/mL (≈ 1.76 µM) | 0.25 µg/mL (≈ 0.44 µM) | 2 µg/mL (≈ 3.52 µM) | 0.13 µg/mL (≈ 0.229 µM) | 0.5 µg/mL (≈ 0.879 µM) | 1 µg/mL (≈ 1.76 µM) | > 32 µg/mL | – | 2 | 1 µg/mL (≈ 1.76 µM) | 0.13 µg/mL (≈ 0.229 µM) | 1 µg/mL (≈ 1.76 µM) | 32 µg/mL (≈ 56.3 µM) | 0.5 µg/mL (≈ 0.879 µM) | 36.2 mL/min/kg | – | –
NCCSCc1cnccc1SC1=C(C(=O)O)N2C(=O)C(NC(=O)/C(=N\O)c3csc(N)n3)C2SC1 (centres unmarked) [Cmpd 19] | 4 µg/mL (≈ 7.05 µM) | 1 µg/mL (≈ 1.76 µM) | 4 µg/mL (≈ 7.05 µM) | 0.5 µg/mL (≈ 0.881 µM) | 2 µg/mL (≈ 3.52 µM) | 2 µg/mL (≈ 3.52 µM) | > 32 µg/mL | – | 2 | 2 µg/mL (≈ 3.52 µM) | 0.5 µg/mL (≈ 0.881 µM) | 2 µg/mL (≈ 3.52 µM) | > 32 µg/mL | 4 µg/mL (≈ 7.05 µM) | – | – | 20.8 mL/min/kg
NCCSCc1cnccc1SC1=C(C(=O)O)N2C(=O)[C@@H](NC(=O)/C(=N\O)c3nc(N)sc3Cl)[C@H]2SC1 [Cmpd 20, (7R)-7-[(Z)-2-(2-amino-5-chlorothiazol-4-yl)-2-(hydroxyimino)acetamido]-3-[3-(2-aminoethylthiomethyl)pyrid-4-ylthio]-3-cephem-4-carboxylic acid] | 0.25 µg/mL (≈ 0.415 µM) | 0.13 µg/mL (≈ 0.216 µM) | 2 µg/mL (≈ 3.32 µM) | 0.13 µg/mL (≈ 0.216 µM) | 0.5 µg/mL (≈ 0.83 µM) | 1 µg/mL (≈ 1.66 µM) | > 32 µg/mL | – | 3 | 0.5 µg/mL (≈ 0.83 µM) | 0.06 µg/mL (≈ 0.0996 µM) | 1 µg/mL (≈ 1.66 µM) | 8 µg/mL (≈ 13.3 µM) | 8 µg/mL (≈ 13.3 µM) | 26.5 mL/min/kg | – | –
NCCSCc1ccncc1SC1=C(C(=O)O)N2C(=O)[C@@H](NC(=O)/C(=N\O)c3nc(N)sc3Cl)[C@H]2SC1 [Cmpd 21, (7R)-7-[(Z)-2-(2-amino-5-chlorothiazol-4-yl)-2-(hydroxyimino)acetamido]-3-[4-(2-aminoethylthiomethyl)pyrid-3-ylthio]-3-cephem-4-carboxylic acid] | – | – | – | – | – | – | – | – | 2 | – | – | – | – | – | 12.2 mL/min/kg | – | –
NCCSCc1ncsc1SC1=C(C(=O)O)N2C(=O)[C@@H](NC(=O)/C(=N\O)c3cccc(N)n3)[C@H]2SC1 [Cmpd 23, (7R)-7-[(Z)-2-(2-aminopyrid-6-yl)-2-(hydroxyimino)acetamido]-3-[4-(2-aminoethylthiomethyl)-1,3-thiazol-5-ylthio]-3-cephem-4-carboxylic acid] | 2 µg/mL (≈ 3.52 µM) | 0.5 µg/mL (≈ 0.881 µM) | 4 µg/mL (≈ 7.05 µM) | 0.06 µg/mL (≈ 0.106 µM) | 2 µg/mL (≈ 3.52 µM) | 2 µg/mL (≈ 3.52 µM) | > 32 µg/mL | – | – | 1 µg/mL (≈ 1.76 µM) | 0.25 µg/mL (≈ 0.44 µM) | 1 µg/mL (≈ 1.76 µM) | – | 16 µg/mL (≈ 28.2 µM) | 13.5 mL/min/kg | – | –
NCCSCc1cnccc1SC1=C(C(=O)O)N2C(=O)[C@@H](NC(=O)/C(=N\O)c3cccc(N)n3)[C@H]2SC1 [Cmpd 24, (7R)-7-[(Z)-2-(2-aminopyrid-6-yl)-2-(hydroxyimino)acetamido]-3-[3-(2-aminoethylthiomethyl)pyrid-4-ylthio]-3-cephem-4-carboxylic acid] | 2 µg/mL (≈ 3.56 µM) | 0.5 µg/mL (≈ 0.89 µM) | 2 µg/mL (≈ 3.56 µM) | 0.25 µg/mL (≈ 0.445 µM) | 1 µg/mL (≈ 1.78 µM) | 1 µg/mL (≈ 1.78 µM) | > 32 µg/mL | – | – | 1 µg/mL (≈ 1.78 µM) | 0.25 µg/mL (≈ 0.445 µM) | 2 µg/mL (≈ 3.56 µM) | 32 µg/mL (≈ 57 µM) | 16 µg/mL (≈ 28.5 µM) | 47.5 mL/min/kg | – | –
N=C(N)NCCSCc1cnccc1SC1=C(C(=O)O)N2C(=O)[C@@H](NC(=O)/C(=N\O)c3nsc(N)n3)[C@H]2SC1 [Cmpd 25, (7R)-7-[(Z)-2-(5-amino-1,2,4-thiadiazol-3-yl)-2-(hydroxyimino)acetamido]-3-[3-(2-guanidinoethylthiomethyl)pyrid-4-ylthio]-3-cephem-4-carboxylic acid] | 1 µg/mL (≈ 1.64 µM) | 0.25 µg/mL (≈ 0.409 µM) | 2 µg/mL (≈ 3.27 µM) | 0.13 µg/mL (≈ 0.213 µM) | 0.5 µg/mL (≈ 0.819 µM) | 1 µg/mL (≈ 1.64 µM) | > 32 µg/mL | – | 1 | 1 µg/mL (≈ 1.64 µM) | 0.13 µg/mL (≈ 0.213 µM) | 1 µg/mL (≈ 1.64 µM) | 32 µg/mL (≈ 52.4 µM) | 1 µg/mL (≈ 1.64 µM) | 18.7 mL/min/kg | – | –
